{
  "source": "patent US10800755B2",
  "about": "“2,6-disubstituted pyridine derivative” (Sumitomo Dainippon Pharma Co., Ltd., priority 2017, dated 2020)",
  "key": {"Wistar male rat": {"system": "Wistar male rat", "test": "Test 8: forced swimming test", "type": "in vivo", "conditions": "oral, once a day, 5 mg/kg administration", "description": "Test 8: Forced Swimming Test\nThe antidepressive effect of the present compound was evaluated in a manner mentioned below.\nThe test was carried out with 8-week-old Wistar male rat in 4-day test schedule. On the 1st day of the test, the rat was put into a transparent plastic bath filled with 5.8 L of tap water at 25° C., and made to swim for 15 minutes as swimming training. After the swimming training, the rat was rapidly wiped to remove the attached waterdrop, and returned to the home cage. 15 minutes after the training, the present compound or a positive control compound was orally administered with methylcellulose suspension to the rat. On the next day of the training and the day after next, the present compound or the positive control compound was orally administered with methylcellulose suspension to the rat once a day. On the 4th day, the swimming test was carried out. On the day of the swimming test, the present compound or the positive control compound was orally administered with methylcellulose suspension to the rat one hour before the start of the test. The swimming test was carried out with the rat in the above-mentioned water bath for 5 minutes. The swimming movement of the individual was recorded with a video from the side of the water bath, and the immobility time was measured with a stop-watch. […]"}, "SD male rat": {"system": "SD male rat", "test": "Test 6: contextual fear conditioning test", "type": "in vivo", "conditions": "15 mg/kg administration", "description": "Test 6: Contextual Fear Conditioning Test\nThe antianxiety of the present compounds was evaluated in a manner mentioned below.\nThe evaluation of an 8-week-old SD male rat with a fear conditioning test system (O'HARA & CO., LTD.) was carried out in 2-day test schedule. On the 1st day of the test, by giving 0.5 mA of electric shock to the rat as unconditioned stimulus 5 times for 6 minutes, the rat was made to learn the relationship the context (the illuminance in the cage: 200 lx) which was given as conditioned stimulus, and phobic stimulus. On the 2nd day, the present compound was subcutaneously administered with saline solution to the rat, or orally administered with methylcellulose suspension to the rat. 0.5 or 1 hour after the administration, the rat was made to softly enter the cage under the condition in which the unconditioned stimulus was not given in the context. The time of cataleptic freezing reaction that the rat took for 5-minute freely-moving period and its ratio were measured. The ratios of cataleptic freezing reaction between the solvent-administration group and the present compound-administration group were compared to be statistically processed."}, "human D2 receptor": {"molecular_target": "human D2 receptor (Homo sapiens (Human), UniProt P14416)", "sequence (P14416 whole entry)": "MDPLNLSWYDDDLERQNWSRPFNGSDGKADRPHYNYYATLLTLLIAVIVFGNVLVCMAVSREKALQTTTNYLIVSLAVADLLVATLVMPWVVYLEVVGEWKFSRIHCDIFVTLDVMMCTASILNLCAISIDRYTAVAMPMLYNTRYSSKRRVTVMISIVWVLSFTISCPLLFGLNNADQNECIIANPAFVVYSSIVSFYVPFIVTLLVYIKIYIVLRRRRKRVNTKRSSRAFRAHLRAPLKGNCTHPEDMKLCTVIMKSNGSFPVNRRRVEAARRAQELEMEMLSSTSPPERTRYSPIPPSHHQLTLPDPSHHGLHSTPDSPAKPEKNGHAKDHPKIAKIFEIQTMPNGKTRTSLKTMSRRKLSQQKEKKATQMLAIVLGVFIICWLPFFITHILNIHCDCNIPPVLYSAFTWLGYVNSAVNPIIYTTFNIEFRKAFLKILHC", "test": "Test 2: binding activity to human D2 receptor ([3H] spiperone, CHO cell membrane)", "conditions": "[3H] spiperone; read-out: D2 binding affinity (Ki value)"}, "human D4 receptor": {"molecular_target": "human D4 receptor (Homo sapiens (Human), UniProt P21917)", "sequence (P21917 whole entry)": "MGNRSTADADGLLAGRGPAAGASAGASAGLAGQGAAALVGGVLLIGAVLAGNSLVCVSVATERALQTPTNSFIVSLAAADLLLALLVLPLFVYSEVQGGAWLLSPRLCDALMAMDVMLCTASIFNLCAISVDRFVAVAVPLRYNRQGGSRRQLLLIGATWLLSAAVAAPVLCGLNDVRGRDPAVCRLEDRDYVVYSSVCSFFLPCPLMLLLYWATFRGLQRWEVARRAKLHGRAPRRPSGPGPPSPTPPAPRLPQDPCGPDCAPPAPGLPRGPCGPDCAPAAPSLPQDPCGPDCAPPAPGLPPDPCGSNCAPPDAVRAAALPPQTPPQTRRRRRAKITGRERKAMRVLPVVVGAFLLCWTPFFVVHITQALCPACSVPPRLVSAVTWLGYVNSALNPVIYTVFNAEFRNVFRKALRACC", "test": "Test 2: binding activity to human D4 receptor ([3H] dopamine, CHO cell membrane)", "conditions": "[3H] dopamine; read-out: D4 binding affinity (Ki value)"}, "[1]": {"test": "Test 4-2: predictive test of human half-life (monkey distribution volume, serum unbound fraction, Test 3-2 stability)", "conditions": "in vivo, predicted using Test 3-2 metabolic stability", "description": "Test 4-2: Predictive Test of Human Half-Life\n(§1) 0.01 mol/L of the present compound in aqueous hydrochloric acid solution was parenterally administered to cynomolgus monkey. 5 minutes, 15 minutes, 30 minutes, 1 hour, 2 hours, 4 hours, 6 hours, and 24 hours after the administration, the blood was collected. The plasma was obtained from the collected blood, the drug concentration in the plasma was measured with a LC-MS, and the monkey distribution volume was calculated from the transition of the concentrations. The unbound fraction rate of the present compound in serum of human and monkey was measured by equilibrium dialysis method.\nUsing the monkey distribution volume, the unbound fraction rate in serum of human and monkey, and the result of the metabolic stability of human liver microsome which was obtained in Test 3-2, the half-life in human was calculated according to the formula below. “Human distribution volume”=“monkey distribution volume”×“unbound fraction rate in serum of human”/“unbound fraction rate in serum of monkey” “Human hepatic clearance”=(“human hepatic blood flow”×“unbound fraction rate in serum of human”×56.7×“metabolic stability of human liver microsome”)/(“human hepatic blood flow”+“unbound fraction rate in serum of human”×56.7×“metabolic stability of human liver microsome”) “Half-life in human”=0.693×“human distribution volume”/“human hepatic clearance”"}, "[2]": {"test": "Test 4-1: predictive test of human half-life (monkey distribution volume, serum unbound fraction, Test 3-1 stability)", "conditions": "in vivo, predicted using Test 3-1 metabolic stability", "description": "Test 4-1: Predictive Test of Human Half-Life\nas §1\nUsing the monkey distribution volume, the unbound fraction rate in serum of human and monkey, and the result of the metabolic stability of human liver microsome which was obtained in Test 3-1, the half-life in human was calculated according to the formula below. “Human distribution volume”=“monkey distribution volume”×“unbound fraction rate in serum of human”/“unbound fraction rate in serum of monkey” “Human hepatic clearance”=(“human hepatic blood flow”×“unbound fraction rate in serum of human”×56.7×“metabolic stability of human liver microsome”)/(“human hepatic blood flow”+“unbound fraction rate in serum of human”×56.7×“metabolic stability of human liver microsome”) “Half-life in human”=0.693×“human distribution volume”/“human hepatic clearance”"}},
  "data": [
    {"smiles": "O=C(NCCN1CCC(c2cccc(C(F)(F)F)n2)CC1)C1CCC(F)(F)CC1", "note": "[Example 1, 4,4-Difluoro-N-(2-{4-[6-(trifluoromethyl)pyridin-2-yl]piperidin-1-yl}ethyl)cyclohexane-carboxamide]", "values": [
      {"measurement": "decrease of the immobility time for the solvent-administration group", "setting": "Wistar male rat", "result": 74.7, "unit": "%"},
      {"measurement": "decrease of the cataleptic freezing reaction for the solvent-administration group", "setting": "SD male rat", "result": 82.5, "unit": "%"},
      {"measurement": "Ki", "setting": "human D2 receptor", "result": 1140, "unit": "nM"},
      {"measurement": "Ki", "setting": "human D4 receptor", "result": 11, "unit": "nM"},
      {"measurement": "half-life", "setting": "[1]", "result": 24, "unit": "h"},
      {"measurement": "half-life", "setting": "[2]", "result": 11, "unit": "h"}
    ]}
  ]
}
